Results: patent publication US7745222B2, “Amyloid binding assays” (priority 2006, dated 2010)

Experiments:
[1] = test system: A-beta fibrils (human A-beta 1-40); format: binding; conditions: A-beta fibrils on rat brain section; fluorescence imaging; FIG. 4-5
Method: (§1) In one embodiment, sections of Sprauge-Dawley naïve rat brain (Taconic) 10 microns in thickness were fixed with 10% formalin in phosphate buffered saline (PBS).
The clear film of A-beta 1-40 was diluted with distilled water to achieve a 6-mg/mL concentration. […] The clear solution was diluted to 1 mg/mL with PBS, pH 7.4 to obtain a final concentration of 1 mg/mL A-beta 1-40 then incubated at 37° C. on an orbital shaker at 200 RPM for 4 days.
(§2) The slides were washed with PBS three times then incubated with blocking buffer consisting of 10% normal goat serum in 3% BSA in PBS.
(§3) For the sandwich assay approach 100 μL of 1/250th dilution of anti-A-beta antibody, (Signet) was applied to the tissue. The tissue was then incubated for 1.5 hours at room temperature, or in an alternative approach, for 45 minutes at 37° C. Next, a 1/100th dilution of the secondary antibody Alexa Flour 594-goat antimouse IgG (Molecular Probes) was prepared in PBS and 100 μl was applied to the slides, which were then incubated at room temperature for 1.5 hours. […]
(§4) Microscopic examination was performed using a Leica (Leica Microsystems Inc, Bannockburn Ill.) wide-field fluorescence microscope.
(§5) The fluorescent images were quantified by calculating the sum of pixel intensity of the immunofluorescence for each amyloid species. […]

[2] = test system: soluble oligomeric A-beta (human beta-amyloid 1-42); format: binding; conditions: for binding to soluble oligomeric A-beta: A-beta species on Sprague-Dawley naive rat brain section (hippocampus), fluorescence imaging, FIG. 2-3
Method: as §1
Soluble A-beta oligomer formation. 1 mg of human beta-amyloid 1-42 (H-5642, Bachem) and 500 uL of 1,1,1,3,3,3 hexafluoro-2-propanol (HFIP) (Aldrich) were chilled in separate bottles on ice for 30 minutes. Cold beta-amyloid 1-42 was solubilized with cold HFIP. The mixture was incubated for 1 hr at room temperature until it turned clear. The resulting solution was then dried to a film under vacuum. The film was dissolved again in cold HFIP and incubated another 1 hr at room temperature. The resulting solution was separated into aliquots in several microcentrifuge tubes. HFIP was removed under vacuum, and the films were stored at −20° C. until use. To prepare soluble oligomer, the film was dissolved in appropriate amount of dry DMSO (Sigma), and Ham's F12 media (Biosource) or PBS (Sigma, D8537) was added and incubated at 4° C. for 24 hours (final concentration of 200 uM or 0.9 mg/mL beta-amyloid in 2% DMSO).
as §2, §3, §4, §5

O=Cc1ccc(-c2oc3ccccc3c2CO)o1 [68B-3]
binding to A-beta fibrils [1]: bound | binding to soluble oligomeric A-beta [2]: bound | preferential binding, soluble A-beta relative to insoluble A-beta ([2]; stated as validated property of the binder): preferential binder for soluble A-beta

Cc1ccc2c(c1)sc(-c1ccc(N(C)C)cc1)[n+]2C.[Cl-] [Thioflavin T]
binding to A-beta fibrils [1]: bound | binding to soluble oligomeric A-beta [2]: bound
